Test results reported in ChEMBL document CHEMBL4673311, “Development of pyrimidone D1 dopamine receptor positive allosteric modulators” (Bioorg Med Chem Lett, 2021).

Experiments:
[1] = molecular target: D(1B) dopamine receptor (Homo sapiens) (UniProt P21918); assay: Positive allosteric modulator activity at human dopamine D5 receptor expressed in CHO-K1 cells assessed as fold change in dopamine EC50 for beta-arrestin2 recruitment at 50 uM incubated for 90 mins by PathHunter assay relative to control; assay type: cell-based; conditions: filed as positive allosteric modulator
Chain of D(1B) dopamine receptor (Homo sapiens) (P21918 whole entry): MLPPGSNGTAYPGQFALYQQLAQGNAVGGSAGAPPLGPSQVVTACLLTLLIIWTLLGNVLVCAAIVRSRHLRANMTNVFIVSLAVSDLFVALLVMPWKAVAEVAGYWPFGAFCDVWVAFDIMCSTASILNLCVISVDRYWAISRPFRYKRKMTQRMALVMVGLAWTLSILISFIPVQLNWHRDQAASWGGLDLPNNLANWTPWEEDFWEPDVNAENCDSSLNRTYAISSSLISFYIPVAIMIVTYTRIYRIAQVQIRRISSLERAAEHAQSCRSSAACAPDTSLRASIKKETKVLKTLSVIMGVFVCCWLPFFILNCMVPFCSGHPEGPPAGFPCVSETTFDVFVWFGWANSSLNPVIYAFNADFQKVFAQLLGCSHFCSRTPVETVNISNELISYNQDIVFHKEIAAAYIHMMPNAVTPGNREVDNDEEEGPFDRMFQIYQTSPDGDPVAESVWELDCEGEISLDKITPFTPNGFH

[2] = molecular target: D(1B) dopamine receptor (Homo sapiens) (UniProt P21918); assay: Positive allosteric modulator activity at human dopamine D5 receptor expressed in CHO-K1 cells assessed as fold change in dopamine Emax for beta-arrestin2 recruitment at 50 uM incubated for 90 mins by PathHunter assay relative to control; assay type: cell-based; conditions: filed as positive allosteric modulator

- fold change (FC) [1]: 2.84
- fold change (FC) [2]: 1.5
Compound: Cn1c2ccccc2c(=O)c2c(=O)n(-c3ccccc3)c(C3CCCCC3)nc21
